# Test results as given in paper PMC8010149, “A Therapeutic Strategy to Combat HIV-1 Latently Infected Cells With a Combination of Latency-Reversing Agents Containing DAG-Lactone PKC Activators” (Frontiers in Microbiology, 2021).
# Experiments:
# [1] = Cytotoxicity of LRAs in A3.01 cells; type: cell-based; settings: human, day 7
# Method: (§1) To determine the cytotoxicity of LRAs, A3.01, and U937 cells (5 × 10^5 cells/ml), which are the parental cells for ACH-2 and U1 cells, respectively, were cultured in the presence or absence of LRAs. After 7 days, cell viability was examined using the Cell Counting Kit-8 assay (Dojindo, Kumamoto, Japan) according to the manufacturer’s instructions. The numbers of living cells after drug treatment were measured and compared to those in untreated cells and are presented as a percentage relative to the control.
# [2] = Cytotoxicity of LRAs in U937 cells; type: cell-based; settings: human, day 7
# Method: as §1
# J-Lat 10.6 cells = type: cell-based, HIV-1
# Method: The reactivation of HIV-1 from latently infected cells was determined by intracellular p24 protein expression and quantification of p24 antigen in the supernatant (ACH-2 and U1 cells), or by changes in intracellular green fluorescent protein (GFP) expression (J-Lat 10.6 cells). […] The supernatant was collected after 48 h. The increase in supernatant p24 antigen levels was measured using a Lumipulse G1200 (FUJIREBIO, Tokyo, Japan). […] Intracellular p24 protein expression and GFP-positive cells were analyzed by flow cytometry.
# Differences between groups were analyzed for statistical significance using unpaired t-tests. Statistical significance was set at p < 0.05. Statistical analyses were performed using GraphPad Prism version 8 (GraphPad Software, La Jolla, CA, United States). CompuSyn software, based on the quantitative analysis of dose-effect relationships between multiple drugs by Chou and Talalay, was utilized to determine the synergism or antagonism of drug combinations ([Chou and Talalay, 1984]). To confirm synergy, this software calculates combination index (CI) values, which further assist in determining the nature of the combination compared to single drug effects. A CI value <1 indicates synergistic effects.
# U1 cells = experiment: Active caspase-3 by flow cytometry in U1 cells; type: cell-based; settings: 10 µM, 24 h
# Method: The amount of intracellular HIV-1 p24 and the active form of caspase-3 were determined by flow cytometry, as previously described ([Matsuda et al., 2015], [2019]). In brief, ACH-2 and U1 cells (2.5 × 10^5 cells/ml) were fixed with 1% paraformaldehyde/PBS for 20 min and permeabilized with Flow Cytometry Perm Buffer (TONBO Biosciences, San Diego, CA, United States). After 5 min of incubation at room temperature, the cells were stained with FITC anti-HIV-1 p24 (24-4) monoclonal antibody (mAb; Santa Cruz Biotechnology, Dallas, TX, United States) or Alexa Fluor 647-conjugated anti-active caspase-3 (C92-605) mAb (BD Pharmingen, San Diego, CA, United States) for 30 min on ice. For T cell activation and exhaustion marker staining, PBMCs from healthy donors separated by the above density gradient centrifugation method were incubated with fixable viability stain Ghost Dye 780 (TONBO Biosciences) for 30 min on ice. […] Next, the cells were analyzed using BD FACSVerse (BD Biosciences). […] The collected data were analyzed using FlowJo software (Tree Star, San Carlos, CA, United States).
# A3.01 cells = experiment: Active caspase-3 by flow cytometry in A3.01 cells; type: cell-based; settings: 10 μM, 24 h
# BALB/c mice = experiment: In vivo acute toxicity (24 h) in BALB/c mice; settings: intraperitoneal, 100 μg/kg–10 mg/kg
# Source text: BALB/c mice were purchased from Charles River Laboratories Japan, Inc. (Yokohama, Japan). Female mice at 5 weeks of age were used for the experiments. The mice were housed and monitored in our animal research facility according to the institutional guidelines. All experimental procedures and protocols were approved by the Institutional Animal Care and Use Committee of Kumamoto University.
# [3] = Pharmacokinetics in mice, plasma concentration by LC-MS/MS; type: in vivo; settings: BALB/c mice, 10 mg/kg subcutaneous
# Method: Blood was drawn from mice at 0.5, 1, 3, 6, 12, and 24 h after subcutaneous administration of YSE028 at a dose of 10 mg/kg. Plasma samples were prepared on ice. Blood was collected in a heparin tube and then separated at 5,000 rpm for 10 min at 4°C. Two hundred microliter of MeOH was added to 40 μl of mouse plasma immediately after plasma collection to terminate the enzymatic hydrolysis of YSE028 during sample preparation. All samples were vortexed for 10s and centrifuged at 12,000 g for 10 min at 4°C. The supernatant was then separated. Alectinib (10 ng/ml) in MeOH was used as an internal standard (IS) and added to the supernatant for liquid chromatography tandem mass spectrometry (LC-MS/MS) analysis.
# A Nexera X2 UHPLC system (Shimadzu, Kyoto, Japan) connected to a QTRAP5500 mass spectrometer (AB SCIEX, Framingham, MA, United States) was used for LC-MS/MS analysis. The separation of YSE028 and alectinib (IS) was performed using an XBridge C18 column (2.1 × 50 mm, 3.5 μm, Waters). The mobile phases consisted of 10 mM ammonium formate (A) and MeOH (B). The run time was 6 min with a flow rate of 0.5 ml/min. The oven temperature was set to 40°C, and the autosampler chamber was maintained at 4°C. The gradient elution program was set as follows: 0–3.0 min, 60–80% B; 3.1 min–4.0 min, 95% B; and 4.1 min–6 min, 60% B. The sample injection volume was 5 μl. The electrospray ionization interface in positive mode was used to perform tandem mass spectrometry (MS/MS). The MRM transition for YSE028 was m/z 313.1→187.1. The MS parameters were optimized as follows: desolvation temperature, 500°C; curtain gas (CUR), 40; collision gas (CAD), 7; ionspray voltage (IS), 4500v; ion source gas (GS1), 50 psi; ion source gas (GS2), 80 psi; declustering potential (DP), 110 v; entrance potential (EP), 10v; collision energy (CE), 13v; collision cell exit potential (CXP), 20v.
# [4] = system: CD8+PD1+CD38+ primary T cells; experiment: Immune exhaustion markers, CD8+PD1+CD38+ primary T cells; type: cell-based, human; settings: PBMCs from healthy donors, 24 h
# Method: The amount of intracellular HIV-1 p24 and the active form of caspase-3 were determined by flow cytometry, as previously described ([Matsuda et al., 2015], [2019]). In brief, ACH-2 and U1 cells (2.5 × 10^5 cells/ml) were fixed with 1% paraformaldehyde/PBS for 20 min and permeabilized with Flow Cytometry Perm Buffer (TONBO Biosciences, San Diego, CA, United States). After 5 min of incubation at room temperature, the cells were stained with FITC anti-HIV-1 p24 (24-4) monoclonal antibody (mAb; Santa Cruz Biotechnology, Dallas, TX, United States) or Alexa Fluor 647-conjugated anti-active caspase-3 (C92-605) mAb (BD Pharmingen, San Diego, CA, United States) for 30 min on ice. For T cell activation and exhaustion marker staining, PBMCs from healthy donors separated by the above density gradient centrifugation method were incubated with fixable viability stain Ghost Dye 780 (TONBO Biosciences) for 30 min on ice. The cells were then stained with Brilliant Violet 510 anti-human CD3 (UCHT1) mAb (BioLegend), FITC anti-human CD4 (RPA-T4) mAb (TONBO Biosciences), PE-Cy7 anti-human CD8a (RPA-T8) mAb (TONBO Biosciences), PerCP-Cy5.5 anti-human CD38 (HB-7) mAb (BioLegend), PE anti-human CD69 (FN50) mAb (BioLegend), or Alexa Fluor 647 anti-human CD279/PD-1 (EH12.1) mAb (BD Biosciences, San Jose, CA, United States) for 30 min on ice. Next, the cells were analyzed using BD FACSVerse (BD Biosciences). In the analysis, unstained cells were used as a negative control to set the gating for each experiment. The collected data were analyzed using FlowJo software (Tree Star, San Carlos, CA, United States).
compound,measurement,setting,value
CCCC(CCC)C(=O)OCC1(CO)CC(=C(C)C)C(=O)O1 (stereo not drawn) [YSE028],CC50 at 7 days,[1],> 100 µM
same,CC50 at 7 days,[2],> 100 µM
same,number of GFP+ cells,"J-Lat 10.6 cells; J-Lat 10.6 cells, 100–400 nM, 24 h",5.8%
same,LRA activity in the presence of 10% mouse serum versus 10% FBS,"J-Lat 10.6 cells; J-Lat 10.6 cells, 24 h, GFP-positive cells",drastically decreased
same,reactivation after short-term exposure,"J-Lat 10.6 cells; J-Lat cells, exposure 1 h, wash-out, analysed after 24 h",successfully reactivated
same,caspase-3 activation,U1 cells,22.7%
same,caspase-3 activation,A3.01 cells,5.81%
same,survival,BALB/c mice,all of them survived
same,time within which the concentration in blood decreased rapidly,[3],≤ 3 h
same,peak concentration (median),[3]; plasma,5.14 ng/mL
same,Tmax,"[3]; mouse, sc, plasma, read-out: time of peak concentration",1 h
same,increase in CD8+ PD1+ CD38+ T cells,[4],only moderate
